In patent publication US20140309280A1, “ASSAYS FOR MICRO-RNA-182 AS A BIOMARKER FOR MUSCLE ATROPHY AND THERAPEUTIC APPLICATIONS” (EMORY UNIVERSITY, priority 2013, published 2014):

Assays:
gastrocnemius muscle = test: Streptozotocin diabetes model of muscle atrophy: FoxO3 mRNA and miR-182 in gastrocnemius muscle; assay type: in vivo; settings: rats, STZ 125 mg/kg single intravenous injection, third day; for decrease of miR-182 in muscle: vs controls
Procedure: (§1) FoxO3 mRNA (Panels A and C) and miR-182 (Panels B and D) were measured in either cells treated with Dex (1 μM) for 6 h (Panels A and B) or in gastrocnemius muscles of either control or streptozotocin-injected, acutely diabetic rats (Panels C and D). Results are reported as the mean±SEM of the fold-change of the respective control values.
Whether there is a similar relationship between FoxO3 and miR-182 expression was investigated in vivo in skeletal muscle during atrophy. STZ-induced diabetes mellitus causes muscle atrophy and responses (e.g., increased atrogin-1 expression) that are consistent with FoxO3 activation. Therefore, FoxO3 expression was evaluated during STZ-induced diabetes mellitus by measuring FoxO3 mRNA. FoxO3 mRNA was increased 75% (FIG. 2D) whereas the level of miR-182 was decreased 43% (P<0.05) (FIG. 2D).
Male rats (˜150 gm) received a single intravenous injection of STZ (125 mg/kg) in citrate buffer. STZ-injected and control rats were pair-fed and on the third day after injection the animals were anesthetized, and the gastrocnemius muscle was harvested. Food was withheld during the night before the tissue harvest to avoid the confounding influences of variable food intake on skeletal muscle protein metabolism. All animal studies were approved by the Emory Institutional Animal Care and Use Committee (IACUC).

C2C12 myotubes [1] = test: miR-182 in media exosomes released from C2C12 myotubes after Dex; assay type: cell-based, Mouse; settings: Dex 6 h
Procedure: Fresh differentiation media containing 100 nM Dex or vehicle was added to myotubes for 6 h. Afterwards, RNA was prepared from isolated media exosomes and miR-182, along U6 controls, was measured.
One mechanism by which microRNAs are protected from degradation is through incorporation into protective exosomes. This has led some to propose that the relative abundance patterns of microRNAs in various tissues and fluids as well as exosomes and other microvesicles are a reflection of underlying pathophysiological processes. Dex administration enhances the exosomal packaging and release of two atrophy-related microRNAs (miR-1 and miR-23a) into the media of C2C12 myotubes. This led us to test whether miR-182 is incorporated into exosomes that are released from myotubes. The amount of miR-182 in exosomes, normalized to U6 small nuclear RNA, is increased 95% in exosomes following Dex treatment to myotubes (FIG. 4). […]
To quantify exosomal microRNA, exosome-associated RNA, including microRNA, was isolated using a urine exosome RNA isolation kit (Norgen Biotek, Thorolod, ON, Canada) according to the manufacturer's instructions for isolating RNA from extracellular fluids. Subsequent quantitative PCR (qPCR) was performed.

C2C12 myotubes [2] = test: FoxO3 mRNA and intracellular miR-182 in C2C12 myotubes treated with Dex to induce atrophy; assay type: cell-based, Mouse; settings: Dex 1 μM, 6 hours
Procedure: as §1
To test this, C2C12 myotubes were treated with dexamethasone (Dex), a synthetic glucocorticoid, which induces atrophy, in part, by increasing FoxO3 activity in C2C12 myotubes. […] Simultaneously, the amount of intracellular miR-182 decreased 44% (FIG. 2B).
Mouse C2C12 myoblasts (American Type Culture Collection, Manassas, Va.) were cultured in growth media [Dulbecco modified Eagle medium plus 10% fetal bovine serum (Atlanta Biologicals, Lawrenceville, Ga.) and 1% penicillin and streptomycin (Invitrogen, Carlsbad, Calif.)] and studied between passage 3 and 7. Myoblasts were grown to ˜95% confluence in a 6-well plate and then differentiated into myotubes by replacing growth media with differentiation media (DMEM supplemented with 2% fetal bovine serum and 1% PS) for 3 days. In some experiments, myotubes were treated with 1 μM Dex for 6 hours before being harvested.

Compound	decrease of miR-182 in muscle (gastrocnemius muscle; P<0.05) [%]	decrease of miR-182 in muscle (gastrocnemius muscle; P<0.05, listed as STZ) [%]	increase of FoxO3 mRNA in muscle (gastrocnemius muscle; vs pair-fed controls) [%]	increase of miR-182 in exosomes, normalized to U6 small nuclear RNA (C2C12 myotubes [1]) [%]	decrease of intracellular miR-182 (C2C12 myotubes [2]) [%]	increase of FoxO3 mRNA (C2C12 myotubes [2]) [%]	decrease of intracellular miR-182 (C2C12 myotubes [2]; listed as dexamethasone) [%]
CN(N=O)C(=O)N[C@H]1C(O)O[C@H](CO)[C@@H](O)[C@@H]1O (mixture of isomers) [streptozotocin]	44	43	75	–	–	–	–
C[C@@H]1C[C@H]2[C@@H]3CCC4=CC(=O)C=C[C@]4(C)[C@@]3(F)[C@@H](O)C[C@]2(C)[C@@]1(O)C(=O)CO [Dexamethasone, dexamethasone]	–	–	–	95	63	133	44
